In PMC4809600, “The Influence of Chronic Wound Extracts on Inflammatory Cytokine and Histatin Stability” (PLoS ONE, 2016):

How the values were obtained:
[1] = Stability in chronic wound extracts (CWE), capillary zone electrophoresis; assay type: in vitro ADME, human; details: 37°C, 96 h, CZE; for Starting material remaining intact after 96 h in CWE: 1 mg/ml in PBS mixed 1:1 with CWE (1 mg/ml protein, pools of 5 donors), 0 h = 100%, mean of 3 independent experiments; for Degradation in CWE in 96 h: incubation with chronic wound extracts
Text: Debridement tissue was obtained from chronic ulcers of 15 patients with therapy resistant (arterio-venous) leg ulcers, according to procedures described earlier. In brief, moist, easily removable debridement material, essentially blood free, was collected from the ulcer surface and divided equally into two different solutions: (i) PBS (B. Braun, Melsungen, Germany), (ii) PBS with protease inhibitor cocktail (PIC) (1:100; v/v) (Sigma-Aldrich, Steinheim, Germany). The mixtures were gently shaken for 1 h at 4°C to elute proteins and centrifuged; the supernatants were stored at -80°C. Total protein content of the supernatant was measured using the BioRad Protein Assay (BioRad Laboratories, Hercules, California, USA) essentially as described by the supplier. Samples were diluted to 1 mg/ml protein and extracts of five different donors were pooled; three different pools of five donors were used in all experiments. The samples are referred to as chronic wound extracts (CWE).
To determine the stability of the different peptides in CWE, histatins and cytokines were dissolved in PBS at 1 mg/ml. Histatins and cytokines were incubated in a 1:1 ratio with (i) PBS, (ii) CWE in PBS, or (iii) CWE in PBS containing PIC, in a total volume of 25 μl. Imidazole (Sigma-Aldrich) was added as an internal standard, with a final concentration of 100 μg/ml. The mixtures were incubated at 37°C, and samples were taken at 0, 24, 48, 72 and 96 h. For histatins containing mixtures, additional samples were taken after 2, 4, 8 and 16 h of incubation.
The samples were analyzed with a BioFocus 2000 capillary zone electrophoresis system (Bio-Rad Laboratories, Hercules, CA, USA) equipped with an uncoated fused-silica capillary of internal diameter 50 μm and a length of 24 cm. Samples were loaded by pressure injection (5 psi/sec). Separation was performed at 10 kV (cathode at the detector side) at 20°C using 0.1 M phosphate buffer (pH 2.5) as electrolyte and monitored continuously at 200 nm. Peaks were quantified with the BioFocus Integrator software. In order to quantify the percentage of intact peptides remaining after incubation with CWE, the ratios of histatins, rhIL-6 or rhCXCL8 to internal standard was set at 100% at 0h, and the ratios at the other incubation time points were related to this.

[2] = test system: dermal fibroblasts; test: Fibroblast wound healing scratch assay (migration); assay type: cell-based, human; details: serum-free medium, histatins 5 μM, rhIL-6 125 ng/ml, rhCXCL8 250 ng/ml, (E0-E96)/(U0-U96), unexposed = 1; for Migration of dermal fibroblasts in scratch assay, 8 h exposure: 8 h exposure then 88 h without, read at 96 h; for Migration of dermal fibroblasts in scratch assay, 96 h exposure: continuous 96 h exposure
Method: Dermal fibroblasts were isolated from healthy human abdominal skin from patients undergoing corrective abdominal plastic surgery. After removal of all adipose tissue, the skin was washed in PBS and incubated overnight on dispase II (Roche, Mannheim, Germany) at 4°C. The next day, epidermis was removed and discarded and the dermis was incubated in collagenase type II (Gibco, Life Technologies, Grand Island, USA)/dispase II in Hanks balanced salt solution (HBSS) (Gibco) at 37°C for 2–3 h. Fibroblast medium consisting of DMEM (Lonza, Verviers, Belgium) containing 1% ultroserG (UG) (Biosepra, Cergy-Saint-Christopher, France) and 1% penicillin-streptomycin (P/S) (Gibco) was added and the solution was passed through an 100 μm and 40 μm cell strainer (Becton Dickinson Falcon, Erembodegem, Belgium). A single cell suspension was seeded at ± 3.5 x 10^4 cells cm^2 and further cultured in fibroblast medium. Medium was changed twice a week and cultures were passaged when 90% confluent using 0.5mM EDTA/0.05% trypsin (Gibco). The cells were maintained at 37°C in a humidified atmosphere containing 5% CO2 and used for experiments at passage 3.
A wound healing scratch assay was performed to determine the effect of histatins, rhIL-6 and rhCXCL8 on fibroblast migration. Confluent monolayers of fibroblasts in a 48-well plate (Costar, Corning Incorporated, New York, USA) were incubated with serum-free medium (DMEM containing 1% P/S and 0.1% bovine serum albumin (Sigma-Aldrich)) for 96 h to ensure minimum spontaneous migration. Next, a scratch was drawn with a disposable plastic pipette tip. Cultures were exposed to Hst1, cHst1, Hst2 and mad-Hst1 (all used at a concentration of 5μM), rhIL-6 (125 ng/ml), rhCXCL8 (250 ng/ml) and vehicle (H2O) in serum free medium. Two experimental set-ups were studied: i) cells were exposed only during the first 8 h to histatins and cytokines and then transferred to vehicle supplemented medium for an additional 88 h; or ii) cells were exposed to histatins and cytokines during the entire 96 h study period. Phase contrast micrographs were taken directly after drawing the scratch and after four days (96 h) of exposure. Data were analyzed using an image processing algorithm that has been described in detail in our previous work. The area of the scratch covered by migrating fibroblasts was determined using the following equation: (E0-E96)/(U0-U96), in which: E = exposure to a condition (IL-6, CXCL8 and histatins); U = unexposed (serum-free medium); E0 and U0 = area of the scratch at T = 0 h; E96 and U96 = area of the scratch (not covered with cells) after 96 h. In this way, in each exposed group (IL-6, CXCL8, histatins) the resurfaced area at 96 h is compared to its own 0 h time point and then set relative to the unexposed group (serum-free medium).

[3] = experiment 1, average of four replicates
[4] = experiment 2, average of four replicates
[5] = experiment 3, average of four replicates
[6] = experiment 4, average of four replicates

Row | Substance | Starting material remaining intact after 96 h in CWE [1] | Degradation in CWE in 96 h [1] | Migration of dermal fibroblasts in scratch assay, 8 h exposure [2, 3] | Migration of dermal fibroblasts in scratch assay, 8 h exposure [2, 4] | Migration of dermal fibroblasts in scratch assay, 8 h exposure [2, 5] | Migration of dermal fibroblasts in scratch assay, 8 h exposure [2, 6] | Migration of dermal fibroblasts in scratch assay, 96 h exposure [2, 3] | Migration of dermal fibroblasts in scratch assay, 96 h exposure [2, 4] | Migration of dermal fibroblasts in scratch assay, 96 h exposure [2, 5] | Migration of dermal fibroblasts in scratch assay, 96 h exposure [2, 6]
1 | rhCXCL8: recombinant human CXCL8; source not split at this label (migration assay used CXCL8 (6–77) from R&D) | approximately 80% | ~ 40% | 1.29 | 1.35 | 1.63 | 2.13 | 1.13 | 1.58 | 1.46 | 1.64
2 | rhIL-6: recombinant human IL-6; source not split at this label | more than 55% | ~ 40% | 1.22 | 1.38 | 1.91 | 2.25 | 1.7 | 1.23 | 1.5 | 2.03
